From ChEMBL document CHEMBL1795320, “Synthesis and antibacterial activity of novel 4″-O-benzimidazolyl clarithromycin derivatives” (2011)
Values after ≈ are worked out from the molar mass of the structure shown.

Columns and labels:
Format in all cases: functional
Streptococcus pneumoniae [1] = assay: Ratio of erythromycin MIC to compound MIC for erythromycin-resistant Streptococcus pneumoniae A22072 expressing mef gene
Streptococcus pneumoniae [2] = assay: Antibacterial activity against erythromycin-resistant Streptococcus pneumoniae A22072 expressing mef gene by broth microdilution method
Streptococcus pneumoniae [3] = assay: Antibacterial activity against erythromycin-resistant Streptococcus pneumoniae B1 expressing erm gene by broth microdilution method
Streptococcus pneumoniae [4] = assay: Antibacterial activity against erythromycin-susceptible Streptococcus pneumoniae ATCC 49619 by broth microdilution method
Streptococcus pneumoniae [5] = assay: Ratio of clarithromycin MIC to compound MIC for erythromycin-resistant Streptococcus pneumoniae B1 expressing erm gene
Streptococcus pneumoniae [6] = assay: Ratio of clarithromycin MIC to compound MIC for erythromycin-susceptible Streptococcus pneumoniae ATCC 49619
Streptococcus pneumoniae [7] = assay: Antibacterial activity against erythromycin-resistant Streptococcus pneumoniae AB11 expressing erm and mef gene by broth microdilution method
Staphylococcus aureus [8] = assay: Ratio of clarithromycin MIC to compound MIC for erythromycin-susceptible Staphylococcus aureus ATCC 25923
Streptococcus pneumoniae [9] = assay: Ratio of erythromycin MIC to compound MIC for erythromycin-resistant Streptococcus pneumoniae B1 expressing erm gene
Streptococcus pneumoniae [10] = assay: Ratio of azithromycin MIC to compound MIC for erythromycin-resistant Streptococcus pneumoniae B1 expressing erm gene
Streptococcus pneumoniae [11] = assay: Ratio of clarithromycin MIC to compound MIC for erythromycin-resistant Streptococcus pneumoniae A22072 expressing mef gene
Staphylococcus aureus [12] = assay: Antibacterial activity against erythromycin-susceptible Staphylococcus aureus ATCC 25923 by broth microdilution method

For CC[C@H]1OC(=O)[C@H](C)[C@@H](O[C@H]2C[C@@](C)(OC)[C@@H](OC(=O)NNC(=O)c3ccc4[nH]c(-c5ccccc5OC)nc4c3)[C@H](C)O2)[C@H](C)[C@@H](O[C@@H]2O[C@H](C)C[C@H](N(C)C)[C@H]2O)[C@](C)(OC)C[C@@H](C)C(=O)[C@H](C)[C@@H](O)[C@]1(C)O, the Ratio (Streptococcus pneumoniae [1]) was 267, the MIC (Streptococcus pneumoniae [2]) was 0.03 µg/mL (≈ 0.0284 µM) and the MIC (Streptococcus pneumoniae [3]) was 2 µg/mL (≈ 1.89 µM). For the same compound, the MIC (Streptococcus pneumoniae [4]) was 0.03 µg/mL (≈ 0.0284 µM), the Ratio (Streptococcus pneumoniae [5]) was 64 and the Ratio (Streptococcus pneumoniae [6]) was 4. The MIC (Streptococcus pneumoniae [7]) was 16 µg/mL (≈ 15.1 µM), the Ratio (Staphylococcus aureus [8]) was 4 and the Ratio (Streptococcus pneumoniae [9]) was 64. The Ratio (Streptococcus pneumoniae [10]) was 64, the Ratio (Streptococcus pneumoniae [11]) was 133 and the MIC (Staphylococcus aureus [12]) was 0.03 µg/mL (≈ 0.0284 µM).
